Patent US10071973B2, “Crystalline isoxazole hydroxamic acid compounds” (priority 2016, dated 2018)
Entries after “also recorded” stand apart in the source; their conditions may differ. Like-named read-outs stand apart in the source and are kept apart here.

Tests used:
[1] = Stability (colour) of the solid on standing at ambient temperature; assay type: physicochemical; settings: ambient / room temperature, over time
From the text: This material required special handling and was not considered suitable for development as a pharmaceutical.

[2] = Hygroscopicity: mass change with relative humidity / deliquescence; assay type: physicochemical; settings: for hygroscopicity / deliquescence (in words): exposed to air or humidity, amorphous: humidity of about 80% or higher
Method: FIG. 4. Isotherm Plots showing reversible mass changes of Crystalline Compound A over a Relative Humidity range of 0-90%.
Primary soller slit 2.5°; secondary soller slit 2.5°; divergent slit 0.6 mm; antiscatter slit 5.0 mm.

P.A. PAO1 NB52019 = test: MIC by broth microdilution (CLSI), P. aeruginosa; assay type: cell-based; settings: Pseudomonas aeruginosa, 35° C., 20 hours
Method: (§1) Bacterial isolates were cultivated from −70° C. frozen stocks by two consecutive overnight passages at 35° C. in ambient air on 5% blood agar (Remel, Lenexa, Kans.). Quality control strain, P. aeruginosa ATCC 27853, A. baumannii ATCC19606 and E. coli ATCC 25922 are from the American Type Culture Collection (ATCC; Rockville, Md.) and PAO1 was received from Dr. K. Poole.
(§2) Minimal Inhibitory Concentrations (MICs) were determined by the broth microdilution method in accordance with Clinical and Laboratories Institute (CLSI) guidelines (CLSI M100-S25, Performance Standards for Antimicrobial Susceptibility Testing; Twenty-fifth Informational Supplement). In brief, fresh bacterial overnight cultures were resuspended in sterile saline, adjusted to a 0.5 McFarland turbidity standard and then diluted 2000-fold in cation adjusted Mueller-Hinton Broth II (MHB; Remel BBL) to yield a final inoculum of approximately 5×10^5 colony-forming units (CFU)/mL. […] Following incubation, assay plates were read in a microtiter plate reader at 600 nm and visually inspected to confirm the MIC endpoint well with the OD value. The lowest concentration of the compound that prevented visible growth was recorded as the MIC. Performance of the assay was monitored by testing ciprofloxacin against the laboratory quality control strain in accordance with guidelines of the CLSI.

A. baumannii ATCC19606 = test: MIC by broth microdilution (CLSI), A. baumannii, alone and with rifampicin; assay type: cell-based; settings: Acinetobacter baumannii
Method: as §1, §2

E. coli ATCC 25922 = test: MIC by broth microdilution (CLSI), E. coli, alone and with rifampicin; assay type: cell-based; settings: Escherichia coli
Method: as §1, §2

hygroscopicity / deliquescence (in words) [2] | MIC (P.A. PAO1 NB52019) | MIC (A. baumannii ATCC19606; broth microdilution, 35° C., 20 hours, read-out: A.B. ATCC 19606 MIC) | MIC (A. baumannii ATCC19606; in presence of 2 μg/ml rifampicin, read-out: A.B. ATCC 19606 (+2 μg/ml RIF) MIC) | MIC (E. coli ATCC 25922; ATCC 25922 / ATCC 29522, in presence of 2 μg/ml rifampicin, read-out: E.C. ATCC 29522 (+2 μg/ml RIF) MIC) | MIC (E. coli ATCC 25922; ATCC25922, broth microdilution, 35° C., 20 hours, read-out: E.C. ATCC 25922 MIC) | mass increase (hygroscopicity) ([2]; RH=90%) | mass increase (hygroscopicity) ([2]; relative humidity (RH) of 80%) | Structure (SMILES) | colour stability on standing [1]
significantly deliquescent | – | – | – | – | – | – | – | C[C@@](CCc1cc(C#CC2CC2)on1)(C(=O)NO)S(C)(=O)=O [amorphous Compound (A), (R)-4-(5-(cyclopropylethynyl)isoxazol-3-yl)-N-hydroxy-2-methyl-2-(methylsulfonyl)butanamide] | developed a brownish color over time; also recorded: tended to darken on standing at ambient temperature
– | 0.25 µg/mL | > 64 µg/mL | 0.125 µg/mL | ≤ 0.06 µg/mL | 2 µg/mL | – | – | C[C@@](CCc1cc(C#CC2CC2)on1)(C(=O)NO)S(C)(=O)=O [A, (R)-4-(5-(cyclopropylethynyl)isoxazol-3-yl)-N-hydroxy-2-methyl-2-(methylsulfonyl)butanamide] | –
low hygroscopicity | – | – | – | – | – | 3.2% | 1.3% | C[C@@](CCc1cc(C#CC2CC2)on1)(C(=O)NO)S(C)(=O)=O [crystalline Compound (A), (R)-4-(5-(cyclopropylethynyl)isoxazol-3-yl)-N-hydroxy-2-methyl-2-(methylsulfonyl)butanamide] | –
